Measurements: publication PMC7369893, “Antimicrobial Peptides Display Strong Synergy with Vancomycin Against Vancomycin-Resistant E. faecium, S. aureus, and Wild-Type E. coli” (International Journal of Molecular Sciences, 2020)
In brackets after ≈: the same amount, converted by molar mass. Positions of bridges follow the written chain, without caps; N, C: chain ends. Non-standard residues stand in square brackets, D forms with d. Residues, ends and D or L forms follow the SMILES beside them. No end group written: not given here. Bip = N[C@@H](Cc1ccc(-c2ccccc2)cc1)C(=O)O

Key:
[1] = system: VRE, VISA, VRSA and E. coli strains; test: Checkerboard assay, summary statements of the text over the strain panel; format: cell-based; details: peptide at ¼ ×MIC combined with vancomycin, all strains studied
Experimental: The synergistic effects of peptides in combination with vancomycin were investigated by checkerboard assay with slight modification. The peptides were fixed concentration at ¼ × MIC, then in combination with antibiotics at various concentrations in each well of 96-well plate. Then the peptide/antibiotic were mixed with inoculum (5 × 10^5 CFU/mL) and incubated at 37 °C for 16 h. The fractional inhibitory concentration (FIC) index was calculated as follows: FIC index = (MIC of drug A in combination/MIC of drug A alone) + (MIC of drug B in combination/MIC of drug B alone). An FIC index of ≤ 0.5 was defined as synergy, indifference was defined as an FIC index of 0.5 < FICI ≤ 4, antagonism was defined as an FIC index of > 4. The experiments were performed in triplicate.

[2] = system: E. faecium BCRC 15B0132; test: Uptake of BODIPY-labeled vancomycin, confocal laser scanning microscopy; format: cell-based, Enterococcus faecium; details: VRE 10^7 CFU/mL, 0.5 ×MIC peptide 30 min at 37 °C, then BODIPY-labeled vancomycin (2 μg/mL) 30 min; mean fluorescence intensity
Experimental: (§1) The fluorescence experiments were performed with slight modification as described previously. Briefly, the bacteria (10^7 CFU/mL) were incubated with 0.5 ×MIC antimicrobial peptides for 30 min and then treated with BODIPY-labeled vancomycin (2 μg/mL) for 30 min. Samples treated with BODIPY-labeled vancomycin only served as a control. After incubation, bacteria were centrifuged at 8000× g for 5 min, washed three times with PBS to remove unbinding fluorescence dye, and resuspended by PBS. The resuspended solution were loaded on the glass slides (Polysine™, Thermo Fisher Scientific, Waltham, MA, USA) and visualized under confocal laser scanning microscope (LSM 510 META, Carl Zeiss, Jena, Thüringen, Germany) equipped with a 64× oil objective lens (Carl Zeiss, Jena, Thüringen, Germany).

[3] = system: VRE, VISA, VRSA, and E. coli strains; test: microbe, parasite or virus in culture; format: cell-based; details: all strains studied (VRE, VISA 01-03, VRSA 01-03, E. coli), Table 2
Experimental: (§2) The antibacterial activities of peptides were determined by the standard broth microdilution method according to the guidelines of the Clinical and Laboratory Standards Institute (CLSI). Briefly, E. coli ATCC 25922 were incubated in MHB, and E. faecium BCRC 15B0132, VISA and VRSA strains were incubated in TSB overnight at 37 °C. The cell cultures were regrown to the mid-log phase and subsequently diluted to a final concentration of 5 × 10^5 CFU/mL. The 1 µL peptides or antibiotic were loaded into each well at the final concentration of 64, 32, 16, 8, 4, 2, 1, and 0.5 µg/mL, then loaded 99 µL diluted microbes into each well of polypropylene 96-well plate. After 16 h of incubation at 37 °C, the turbidity at OD600 was measured by the microplate reader. The minimal inhibitory concentration (MIC) value was defined as the lowest concentration of peptide or antibiotic, which inhibited the 90% visible growth of bacteria. All experiments were repeated three times independently.

[4] = system: mice; details: mouse, in vivo, 10 mg/kg; cited from earlier work
[5] = system: E. faecium BCRC 15B0132 (VRE); test: Time killing assay; format: cell-based, Enterococcus faecium; details: 5 × 10^5 CFU/mL, 1 × MIC, 0.5-24 h, 37 °C, triplicate
Experimental: The bactericidal activities of vancomycin, P-113, Phe-P-113, Bip-P-113, Dip-P-113, and Nal-P-113 against E. faecium BCRC 15B0132 (VRE) and E. coli ATCC 25922 were assessed by the time-kill analysis. The cells were grown overnight in TSB or MHB at 37 °C with shaking, and then fresh TSB or MHB was inoculated for growth to mid-logarithmic phase. Bacteria (5 × 10^5 CFU/mL) were treated with 1 × MIC vancomycin, P-113, Phe-P-113, Bip-P-113, Dip-P-113, and Nal-P-113 for 0.5, 1, 2, 4, 6, 10, and 24 h at 37 °C. Bacteria without peptides and vancomycin served as a control. Aliquots were removed at each time points, and 10-fold serial dilutions of the aliquot were plated onto the Müller-Hinton agar. The numbers of CFU were counted after 24 h of incubation at 37 °C. The detection limit for the colony counts was 2log10 CFU/mL.

[6] = system: E. coli ATCC 25922; test: microbe, parasite or virus in culture; format: cell-based, Escherichia coli; details: ATCC 25922, 16 h
Experimental: as §2

[7] = system: Vancomycin-resistant S. aureus 02 (VRSA02); test: microbe, parasite or virus in culture; format: cell-based, Staphylococcus aureus; details: VRSA02 (induced from VISA02 by serial passage); CLSI broth microdilution, TSB, 5 × 10^5 CFU/mL, 16 h, 37 °C; triplicate
Experimental: (§3) For the purpose of inducing vancomycin-resistant Staphylococcus aureus (VRSA), the VISA01, VISA02, and VISA03 bacteria were incubated overnight in culture medium, and transferring 50 µL of bacteria to 5 mL of fresh medium containing 2 μg/mL of vancomycin then incubated overnight. The bacteria were transferred to new tube with doubling vancomycin concentration and then incubated overnight again. The concentration of vancomycin during serial passage was 2, 4, 8, 16, and 32 µg/mL. The procedure was repeated until meeting the final concentration of 32 µg/mL. After serial passage, the cell resistance was confirmed by using an MIC assay.
as §2

[8] = system: Vancomycin-resistant S. aureus 03 (VRSA03); test: microbe, parasite or virus in culture; format: cell-based, Staphylococcus aureus; details: VRSA03 (induced from VISA03 by serial passage); CLSI broth microdilution, TSB, 5 × 10^5 CFU/mL, 16 h, 37 °C; triplicate
Experimental: as §3, §2

[9] = system: Vancomycin-resistant S. aureus 01 (VRSA01); test: microbe, parasite or virus in culture; format: cell-based, Staphylococcus aureus; details: VRSA01 (induced from VISA01 by serial passage); CLSI broth microdilution, TSB, 5 × 10^5 CFU/mL, 16 h, 37 °C; triplicate
Experimental: as §3, §2

[10] = among the P-113 derivatives; cited from earlier work
Text: The two terminal β-naphthylalanine residues of S1-Nal-Nal (Ac-[…]alNal-NH2) were inserted into the hydrophobic lipid A motif of LPS micelles. […] Similarly, derivatives with phenylalanine-(Phe-P-113), β-naphthylalanine- (Nal-P-1 ...

[11] = POPC:POPG (3:1, mol/mol) and POPC:LPS (4:1, mol/mol) LUVs; cited from earlier work
Text: Dathe and coauthors used POPC:LPS as model prokaryotic membranes to study peptide activity against E. coli and the role of LPS [20]. Previously, we have evaluated the membrane-permeability of P-113 and its derivatives by measuring the release of calcein from various phospholipid vesicles such as POPC:POPG (3:1, mol/mol) LUVs (mimic the anionic bacterial membrane) and POPC:LPS (4:1, mol/mol) LUVs (served as surrogates of Gram-negative bacterial membranes that contain LPS). […] Nal- ...

[12] = system: E. faecium BCRC 15B0132 (VRE); test: microbe, parasite or virus in culture; format: cell-based, Enterococcus faecium; details: BCRC 15, 16 h
Experimental: as §2

[13] = system: E. coli ATCC 25922; test: Uptake of BODIPY-labeled vancomycin, confocal laser scanning microscopy; format: cell-based, Escherichia coli; details: E. coli 10^7 CFU/mL, 0.5 ×MIC peptide 30 min at 37 °C, then BODIPY-labeled vancomycin (2 μg/mL) 30 min; mean fluorescence intensity
Experimental: as §1

[14] = system: Vancomycin-intermediate S. aureus 03 (VISA03); test: microbe, parasite or virus in culture; format: cell-based, Staphylococcus aureus; details: Vancomycin-intermediate 03 (VISA03, 16 h)
Experimental: as §2

[15] = system: Vancomycin-intermediate S. aureus 02 (VISA02); test: microbe, parasite or virus in culture; format: cell-based, Staphylococcus aureus; details: Vancomycin-intermediate 02 (VISA02, 16 h)
Experimental: as §2

[16] = system: Vancomycin-intermediate S. aureus 01 (VISA01); test: microbe, parasite or virus in culture; format: cell-based, Staphylococcus aureus; details: Vancomycin-intermediate 01 (VISA01, 16 h)
Experimental: as §2

[17] = system: human fibroblasts (HFW); details: peptide >25 µg/mL; cited from earlier work
[18] = system: Gram-negative bacteria; details: cited from earlier work
Text: CLP-19 was derived from the core domain of Limulus anti-LPS factor (LALF; amino acids 31–52) with a sequence of ([…]) and a head to tail disulfide bond. It is likely that the positive charges of CLP-19 can interact with the negative charges of LPS and the hydrophobic part of CLP-19 can bind to the f ...

| Molecule | synergy with vancomycin (interpretation of FICI) [1] | entry of BODIPY-labeled vancomycin into the bacteria (rank order) [2] | MICs against these bacterial strains [3] | adverse effect in mice [4] | killing kinetics [5] | MIC [6] [µg/mL] | MIC [7] [µg/mL] | MIC [8] [µg/mL] | MIC [9] [µg/mL] | serum proteolytic stability [10] | calcein leakage from LUVs [11] | MIC [12] [µg/mL] | entry of BODIPY-labeled vancomycin into the bacteria (rank order) [13] | MIC [14] [µg/mL] | MIC [15] [µg/mL] | MIC [16] [µg/mL] | cell death (MTT) [17] | antibiotic-induced release of LPS [18] |
| --- | --- | --- | --- | --- | --- | --- | --- | --- | --- | --- | --- | --- | --- | --- | --- | --- | --- | --- |
| CC(=O)N[C@@H](C)C(=O)N[C@@H](CCCCN)C(=O)N[C@@H](CCCNC(=N)N)C(=O)N[C@@H](Cc1ccc(-c2ccccc2)cc1)C(=O)N[C@@H](Cc1ccc(-c2ccccc2)cc1)C(=O)NCC(=O)N[C@@H](Cc1ccc(O)cc1)C(=O)N[C@@H](CCCCN)C(=O)N[C@@H](CCCNC(=N)N)C(=O)N[C@@H](CCCCN)C(=O)N[C@@H](Cc1ccccc1)C(=O)N[C@@H](Cc1ccc(-c2ccccc2)cc1)C(N)=O [Bip-P-113] (Ac-AKR[Bip][Bip]GYKRKF[Bip]-NH2) | best synergy with vancomycin against all of the bacterial strains tested | Bip-P-113 = Nal-P-113 > Dip-P-113 > Phe-P-113 = P-113 | best MICs | did not observe any adverse effect | rapid bactericidal activity | 32 (≈ 17.2 µM) | 16 (≈ 8.58 µM) | 8 (≈ 4.29 µM) | 16 (≈ 8.58 µM) | enhanced | strongest ability to induce calcein leakage | 4 (≈ 2.15 µM) | Bip-P-113 > Nal-P-113 > Dip-P-113 > Phe-P-113 = P-113 | 8 (≈ 4.29 µM) | 16 (≈ 8.58 µM) | 16 (≈ 8.58 µM) | 10–20% |  |
| CHYRIKPTFRRLKWKYKGKFWC (disulfide 1-22 (inferred)) [CLP-19, antimicrobial peptide derived from the core domain of Limulus anti-LPS factor, with a disulfide bond] |  |  |  |  |  |  |  |  |  |  |  |  |  |  |  |  |  | reduce antibiotic-induced release of LPS |
